Patent US20020044971A1, “Dissolution rate of poorly soluble drugs” (priority 2000, published 2002)
≈ marks a conversion by molar mass, not a printed value. Like-named read-outs stand apart in the source and are kept apart here.

Columns and labels:
[1] = Volume of fluid required to achieve complete dissolution of the dose; type: physicochemical; settings: for the dose listed in Table 1
From the text: The volume requirement of the boundary layer is a function of the solubilizing effect of the surfactant. This volume can be calculated by dividing the mass of the particle by the solubility of the drug.

[2] = aqueous solubility, cited from earlier work

| SMILES | YDISSOLUTION (volume of fluid required to achieve complete dissolution) [1] | Solubility [2] | Solubility ([2]; measured at 39° C.) |
| --- | --- | --- | --- |
| NC(=O)N1c2ccccc2C=Cc2ccccc21 [Carbamazepine] | 4.3 L | 400 µg/mL (≈ 1690 µM) |  |
| O=C(O)c1cc(-c2ccc(F)cc2F)ccc1O [Diflumisal] | 3.6 L | 10 µg/mL (≈ 40 µM) |  |
| C[C@H]1O[C@@H](O[C@H]2[C@@H](O)C[C@H](O[C@H]3[C@@H](O)C[C@H](O[C@H]4CC[C@@]5(C)[C@H](CC[C@@H]6[C@@H]5C[C@@H](O)[C@]5(C)[C@@H](C7=CC(=O)OC7)CC[C@]65O)C4)O[C@@H]3C)O[C@@H]2C)C[C@H](O)[C@@H]1O [Digoxin] | 0.021 L |  |  |
| CC(C)(C)NC(=O)[C@H]1CC[C@H]2[C@@H]3CC[C@H]4NC(=O)C=C[C@]4(C)[C@H]3CC[C@]12C [Finasteride] | 5.0 L | 1 µg/mL (≈ 2.68 µM) |  |
| OC(Cn1cncn1)(Cn1cncn1)c1ccc(F)cc1F [Fluconazole] | 2.0 L | 100 µg/mL (≈ 327 µM) |  |
| COC1=CC(=O)C[C@@H](C)[C@]12Oc1c(Cl)c(OC)cc(OC)c1C2=O [Griseofulvin] | 29.4 L |  | 17 µg/mL (≈ 48.2 µM) |
| CCC(C)n1ncn(-c2ccc(N3CCN(c4ccc(OCC5COC(Cn6cncn6)(c6ccc(Cl)cc6Cl)O5)cc4)CC3)cc2)c1=O (stereo not drawn) [Itraconozole] | 9.9 L | 1 µg/mL (≈ 1.42 µM) |  |
| CN1C(C(=O)Nc2ccccn2)=C(O)c2ccccc2S1(=O)=O [Piroxicam] | 8.2 L | 10 µg/mL (≈ 30.2 µM) |  |
